These results are taken from US20250255984A1, “MNO NANOMATERIAL BASED INHIBITORS OF INFLAMMATION AND CANCER METASTASIS” (priority 2022, published 2025).

“Also recorded” adds a separate entry of the source.

Data set [1] has as its system calf thymus DNA. As to the kind of experiment: PicoGreen DNA-binding assay. Particulars: TE buffer, different material:DNA mass ratios, unbound PicoGreen-labeled DNA. On the procedure: The fluorescence intensity of the unbound PicoGreen®-DNA complex at 520 nm was measured with a multiwell plate reader via excitation at 490 nm.
Inflammatory circulating cfDNA released by PTT-damaged host cells might cause a severe inflammatory response, which may be mitigated by the scavenging of cfDNA. Therefore, to interrogate the cfDNA scavenging ability of the various nanoparticles, the inventors investigated the calf thymus DNA binding affinity of the nanoparticles in Tris-EDTA (TE) buffer with and without 10% FBS by measuring unbound PicoGreen®-labeled DNA (FIGS. 5D and 5E).

The test system of data set [2] is HEK-Blue hTLR9 cells. Briefly: Agonist-induced TLR activation, HEK-Blue hTLR9 SEAP reporter cells. Format: cell-based, human. The note with it: dose-dependent, presence or absence of FBS, 24 hours. On the procedure:
(§1) HEK-Blue hTLR3, hTLR8, and hTLR9 cells were obtained by co-transfecting the hTLR gene and an optimized secreted embryonic alkaline phosphatase (SEAP) reporter gene into HEK293 cells. HEK-Blue hTLR cells were cultured and maintained in DMEM with 10% FBS and 1% penicillin-streptomycin. […] After 24 hours, the supernatants were collected and mixed with Quanti-Blue™. TLR activation associated with SEAP activity was determined with a multiwell plate reader by measuring the OD at 620 nm. The cell densities (in a 96 well plate) used were 8×10^4 cells/well for HEK-Blue hTLR9 cells, 5×10^4 cells/well for HEK-Blue hTLR3 cells, and 4×10^4 cells/well for HEK-Blue hTLR8 cells.
(§2) We further studied nanoparticle-mediated inhibition of proinflammatory molecules-induced TLR activation by using HEK-Blue human TLR (hTLR) cells.
(§3) HEK-Blue hTLR3, hTLR8 and hTLR9 were obtained by co-transfecting the hTLR gene and an optimized secreted embryonic alkaline phosphatase (SEAP) reporter gene into HEK293 cells. HEK-Blue hTLR cells were cultured and maintained in DMEM with 10% FBS and 1% penicillin-streptomycin. […] TLR activation associated with SEAP activity was determined with a multiwell plate reader by measuring the OD at 620 nm.

The test system of data set [3] is HEK-Blue hTLR3 cells. Briefly: Agonist-induced TLR activation, HEK-Blue hTLR3 SEAP reporter cells. The data set is classed as cell-based, human. The note with it: dose-dependent, presence or absence of FBS, 24 hours. On the procedure: as §1, §2, §3
Data set [4] deals with HEK-Blue hTLR4 cells. As to the kind of experiment: Agonist-induced TLR activation, HEK-Blue hTLR4 reporter cells. The data set is classed as cell-based, human. The note with it: dose-dependent, presence or absence of FBS, 24 hours.
Text: as §2

For data set [5], the system named is TNF-α. As to the kind of experiment: TNF-α production by activated RAW264.7 macrophages. The data set is classed as cell-based, murine. Particulars: 24 h, 50 and 100 μg/ml. From the text:
(§4) TLRs recognize a variety of PAMPs and DAMPs that induce the secretion of several proinflammatory cytokines. Inhibiting TLR activation and blocking DAMP-TLR interactions is a promising strategy for alleviating PTT-induced inflammation and reducing tumor regeneration and metastasis.

The test system of data set [6] is COX-2 mRNA. Briefly: COX-2 mRNA expression (RT-qPCR) in activated RAW264.7 cells. The note with it: 24 h. Format: cell-based, murine.
Text: as §4

Data set [7] deals with 4T1 tumor. As to the kind of experiment: 4T1 metastasis tumor model, treatment with or without photothermal therapy. Format: in vivo, Balb/c mice.
Setting [8] is: without laser, intravenous three times per week.

For the compound `COc1cc(/C=C/C(=O)CC(=O)/C=C/c2ccc(O)c(OC)c2)ccc1O` [curcumin], in data set [1], the DNA binding affinity entry is recorded as “negligible DNA binding ability”. In addition, in data set [2], the “CpG-induced activation of HEK-Blue hTLR9 cells” value is reported as “negligible inhibitory effect”. Moreover, the “poly (I:C)-induced activation of HEK-Blue hTLR3 cells” value in data set [3] is “negligible inhibitory effect”. Moreover, in data set [4], the “LPS-induced activation of HEK-Blue hTLR4 cells” value was “negligible inhibitory effect”. Moreover, the TNF-α production result in data set [5] (CpG-activated RAW264.7 cells) is reported as “slightly reduced”; in data set [5] (LPS-activated RAW264.7 cells), “only slightly reduced”. Besides, the figures for the “COX-2 mRNA expression” value in data set [6] (CpG-activated RAW264.7 cells) and in data set [6] (LPS-activated RAW264.7 cells) were “alleviated the generation of COX-2 mRNA in CpG-induced RAW264.7 cells to some extent” and “no obvious inhibitory effect”, respectively. The “survival rates of mice” value in data set [7] (after PTT) was “greatly improved”. In addition, the “tumor recurrence and metastasis” value in data set [7] (after laser (PTT)) is “inhibited tumor recurrence and metastasis”. The “body weight of the mice” value in data set [7] (after laser (PTT), intravenous three times per week) was “increased body weight”; in data set [7] (setting [8]), “did not show obvious effects”. Further, the “cytokine levels (IL-6, TNF-α and IL-1 beta) in mouse serum, ELISA” value in data set [7] (after laser (PTT), versus PBS and laser groups) is listed as “clearly lower”. In addition, the “size of the tumors / tumor suppression” value in data set [7] (setting [8]) was “did not show obvious effects; also recorded: small effect”.

Regarding `O=C(OC[C@H]1O[C@@H](OC(=O)c2cc(O)c(O)c(OC(=O)c3cc(O)c(O)c(O)c3)c2)[C@H](OC(=O)c2cc(O)c(O)c(OC(=O)c3cc(O)c(O)c(O)c3)c2)[C@@H](OC(=O)c2cc(O)c(O)c(OC(=O)c3cc(O)c(O)c(O)c3)c2)[C@@H]1OC(=O)c1cc(O)c(O)c(OC(=O)c2cc(O)c(O)c(O)c2)c1)c1cc(O)c(O)c(OC(=O)c2cc(O)c(O)c(O)c2)c1` [tannic acid], the DNA binding affinity entry in data set [1] is given as “can bind to DNA”.
